Data reported in publication PMC5039624 (Scientific Reports, 2016).
Bridge positions count the residues as written; N and C are the ends. Peptide text beside a SMILES is read from it.

Experiments:
Assay type in all cases: physicochemical
[1] = Liposome centrifugation assay, POPG liposomes; settings: LUVs extruded through 0.1 μm filters, 10 mM HEPES pH 7.4, 150 mM NaCl; 10 μM toxin, 1 h room temperature, 30 min at 100,000 g; unbound toxin in supernatant by RP-HPLC; fit to partition equilibrium equation
Description: (§1) To investigate whether the micelle-binding interface identified by NMR-CSM faithfully reports on the lipid-binding interface of the peptide we used a previously reported liposome centrifugation assay[30] to study the interaction between VSTx1 and phospholipids with different head groups. VSTx1 was incubated with liposomes of different composition, then the liposomes were pelleted using ultracentrifugation and the amount of unbound VSTx1 in the supernatant was determined using reverse-phase (RP) HPLC (Fig. 4a,b). Partition coefficients (Kp) for binding of VSTx1 to liposomes were calculated by fitting to the partition equilibrium equation (see Eqn (3) in Materials and Methods). The Kp for binding to 1-palmitoyl-2-oleoyl-sn-glycero-3-phosphoglycerol (POPG) liposomes was 2.4 × 10^5 while the Kp values for binding to POPC or 1-palmitoyl-2-oleoyl-sn-glycero-3-phosphoethanolamine (POPE) liposomes were close to 0 (both <10^2) (Fig. 4e).
Large unilamellar vesicles (LUVs) were prepared by drying lipids (POPG and/or POPC, 25 mg/mL) under nitrogen gas, drying the lipid pellet under vacuum, and resuspending the lipids by vortexing for 1 h in an aqueous buffer containing 10 mM HEPES pH 7.4, and 150 mM NaCl. Vesicles were extruded 20 times using 0.1 μm polycarbonate filters (Avanti Polar Lipids, Inc.). Aqueous solutions of the toxin (10 μM) were incubated with varying amounts of vesicles for 1 h at room temperature, then the vesicles were centrifuged for 30 min at 100,000 g before the toxin concentration in the aqueous phase was determined. Aqueous concentrations of VSTx1 were quantified by RP-HPLC using a monolithic C18 column (4.6 × 100 mm). The toxin was eluted with a linear gradient of 10–50% solvent B (0.046% TFA in acetonitrile) in solvent A (0.05% TFA in water) over 10 min at a flow rate of 3 ml/min. The partition coefficients (Kp) for the binding of VSTx1 to liposomes were calculated by fitting to the partition equilibrium equation: […]

[2] = Liposome centrifugation assay, POPC liposomes; settings: LUVs, 10 mM HEPES pH 7.4, 150 mM NaCl; 10 μM toxin, 1 h room temperature, 30 min at 100,000 g; supernatant by RP-HPLC; close to 0
Description: as §1, with “The Kp for binding to 1-palmitoyl-2-oleoyl-sn-glycero-3-phosphoglycerol (POPG) liposomes was 2.4 × 10^5 while the Kp values for binding to POPC or 1-palmitoyl-2-oleoyl-sn-glycero-3-phosphoethanolamine (POPE) liposomes were close to 0 (both <10^2) (Fig. 4e).” left out
(§2) Large unilamellar vesicles (LUVs) were prepared by drying lipids (POPG and/or POPC, 25 mg/mL) under nitrogen gas, drying the lipid pellet under vacuum, and resuspending the lipids by vortexing for 1 h in an aqueous buffer containing 10 mM HEPES pH 7.4, and 150 mM NaCl. […] Aqueous solutions of the toxin (10 μM) were incubated with varying amounts of vesicles for 1 h at room temperature, then the vesicles were centrifuged for 30 min at 100,000 g before the toxin concentration in the aqueous phase was determined. Aqueous concentrations of VSTx1 were quantified by RP-HPLC using a monolithic C18 column (4.6 × 100 mm). […]

[3] = Liposome centrifugation assay, POPE liposomes; settings: 10 μM toxin, 1 h room temperature, 30 min at 100,000 g, supernatant by RP-HPLC, close to 0
Description: as §1, with “The Kp for binding to 1-palmitoyl-2-oleoyl-sn-glycero-3-phosphoglycerol (POPG) liposomes was 2.4 × 10^5 while the Kp values for binding to POPC or 1-palmitoyl-2-oleoyl-sn-glycero-3-phosphoethanolamine (POPE) liposomes were close to 0 (both <10^2) (Fig. 4e).” left out
as §2

[4] = Liposome centrifugation assay, liposomes with POPG content reduced by 25%; settings: 10 mM HEPES pH 7.4, 150 mM NaCl, 10 μM toxin, 1 h room temperature, 30 min at 100,000 g, supernatant by RP-HPLC
Description: as §1, with “The Kp for binding to 1-palmitoyl-2-oleoyl-sn-glycero-3-phosphoglycerol (POPG) liposomes was 2.4 × 10^5 while the Kp values for binding to POPC or 1-palmitoyl-2-oleoyl-sn-glycero-3-phosphoethanolamine (POPE) liposomes were close to 0 (both <10^2) (Fig. 4e).” left out
as §2

CSCC[C@@H]1NC(=O)[C@H](Cc2ccccc2)NC(=O)[C@H](CCCCN)NC(=O)CNC(=O)[C@@H](NC(=O)[C@H](CCC(=O)O)NC(=O)[C@@H](N)CO)CSSC[C@@H]2NC(=O)[C@@H]3CSSC[C@@H](C(=O)N[C@H](C(=O)N[C@@H](CC(C)C)C(=O)N[C@@H](C)C(=O)N[C@@H](CO)C(=O)N4CCC[C@H]4C(=O)N[C@@H](Cc4ccccc4)C(=O)O)C(C)C)NC(=O)[C@H](Cc4c[nH]c5ccccc45)NC(=O)[C@H](CCCCN)NC(=O)[C@H](Cc4c[nH]c5ccccc45)NC(=O)[C@H](CCCNC(=N)N)NC(=O)[C@H](CO)NC(=O)[C@H](CO)NC(=O)[C@H](CSSC[C@H](NC(=O)[C@H](CCCCN)NC(=O)[C@H](Cc4c[nH]c5ccccc45)NC1=O)C(=O)N[C@@H](CCCCN)C(=O)N[C@@H](CC(N)=O)C(=O)N[C@@H](CO)C(=O)N[C@@H](CC(N)=O)C(=O)N[C@@H](CC(=O)O)C(=O)N3)NC(=O)[C@H](C(C)C)NC(=O)[C@H](CC(C)C)NC(=O)[C@H](CC(=O)O)NC(=O)[C@H](CCCCN)NC2=O [VSTx1] (H-SECGKFMWKCKNSNDCCKDLVCSSRWKWCVLASPF-OH; disulfide 3-17, 10-22, 16-29)
Partition coefficient (Kp) for binding to POPG liposomes [1]: 2.4 × 10^5
Partition coefficient (Kp) for binding to POPC liposomes [2]: < 10^2
Partition coefficient (Kp) for binding to POPE liposomes [3]: < 10^2
Partition coefficient (Kp), POPG content of liposomes reduced by 25% [4]: 0.18 × 10^5
